Test results taken from ChEMBL document CHEMBL1150945, “New p-terphenyl and polyketide metabolites from the sclerotia of Penicillium raistrickii” (1998).
Calls of active or inactive are those of the source. The calls are words filed in the database; no cut-off is given here.

What was measured:
[1] = tested on: Helicoverpa zea; test: Insecticidal activity against corn ear worm larvae at 400 to 500 ppm relative to control; type: functional
[2] = tested on: Carpophilus; test: Antiinsectan activity against Carpophilus hemipterus assessed as reduction in feeding rate at 400 to 500 ppm relative to control; type: functional; parameters: scale not given: the % may be the effect or the level left
[3] = tested on: Helicoverpa zea; test: Insecticidal activity against corn ear worm larvae at 500 ppm relative to control; type: functional
[4] = tested on: Staphylococcus aureus; test: Antibacterial activity against Staphylococcus aureus ATCC 29213 at 200 ug/disk by standard disk assay; type: functional; conditions: read-out: IZ
[5] = tested on: Candida albicans; test: Antifungal activity against Candida albicans ATCC 14053 at 200 ug/disk by standard disk assay; type: functional, organism-based
[6] = tested on: Bacillus subtilis; test: Antibacterial activity against Bacillus subtilis ATCC 6051 at 200 ug/disk by standard disk assay; type: functional; conditions: read-out: IZ

| SMILES | Activity [1] | Activity [2] | Activity [3] | zone of inhibition at 200 µg/disc [4] | Activity [5] | zone of inhibition at 200 µg/disc [6] |
| --- | --- | --- | --- | --- | --- | --- |
| COC1=CC(=O)C[C@@H](C)[C@]12Oc1c(Cl)c(OC)cc(OC)c1C2=O [GRISEOFULVIN] | 70% | 30% |  |  |  |  |
| COc1c(-c2ccc(O)c(O)c2)cc(O)c(-c2ccc(O)c(O)c2)c1O |  |  | 28% | 13 mm | inactive |  |
| Cc1cc(O)c(O)c2oc3cc(O)cc(O)c3c(=O)c12 |  |  |  | 11 mm | inactive | 12 mm |
| COc1c(-c2ccc(O)c(O)c2)cc(O)c2c1oc1cc(O)c(O)cc12 |  |  |  |  | inactive |  |
